In patent US20070015840A1, “Use of an alkyl ether of hydroxystilbene for the treatment of dry skin” (L'OREAL, priority 2002, published 2007):

Tested on: immortalized human sebocytes derived from the SZ95 line
Test: Lipogenesis in immortalized human sebocytes in culture (SZ95 line), Nile Red fluorescence, total lipids
Assay type: cell-based
Conditions: for VARIATION IN LIPIDS (relative to the control): 0.1% DMSO, 24 hours treatment, total lipids, Nile Red
Method: Resveratrol trimethyl ether was tested on a model of immortalized human sebocytes in culture, derived from the SZ95 line described in Zouboulis, C. C., Seltmann, H., Neitzel, H. & Orfanos, C. E., Establishment and Characterization of an Immortalized Human Sebaceous Gland Cell Line, J. Invest. Dermatol., 113, 1011-1020 (1999).
The test consisted in measuring the amount of lipids produced by the sebocytes of the line (at confluence), in the presence or absence of an active agent diluted in DMSO, at two different concentrations, such that the final amount of DMSO in the culture medium is 0.1% and the amount of resveratrol trimethyl ether is 0.01% (4×10^−4 M) and 0.001% (4×10^−5 M), respectively. After treatment for 24 hours, the adherent cells are treated with Nile Red (1 μg/ml). The lipid content is then quantified by measuring the fluorescence of the dye (two excitation/emission pairs: 485-540 nm for the neutral lipids and 540-620 nm for the non-neutral lipids). The results are given for the total lipids (combination of the two measurements).
The experiment is performed in sextuplicate (products assayed and control) in 96-well plates and repeated four times.

Row | SMILES | VARIATION IN LIPIDS (relative to the control) (0.001% (4×10^−5 M) compound) | VARIATION IN LIPIDS (relative to the control) (0.01% (4×10^−4 M) compound) | inhibition of lipogenesis (0.001%, same conditions as resveratrol trimethyl ether (second of 'respectively')) [%] | inhibition of lipogenesis (0.01%, same conditions as resveratrol trimethyl ether (first of 'respectively')) [%] | ability of sebocytes to produce sebum (qualitative statement in the description)
1 | COc1ccc(C=Cc2cc(OC)cc(OC)c2)cc1 [resveratrol trimethyl ether, Resveratrol trimethyl ether] | +36% | +46% | – | – | –
2 | Oc1ccc(C=Cc2cc(O)cc(O)c2)cc1 [resveratrol] | – | – | 67 | 20 | decreased
